Patent US20260151399A1, “COMBINATIONS OF LSD1 INHIBITORS AND MENIN INHIBITORS FOR TREATING CANCER” (ORYZON GENOMICS, S.A., priority 2022, published 2026)

How the values were obtained:
Assay in all cases: Single agent viability assay (96 hours, alamarBlue)
Type in all cases: cell-based
MOLM-13 = conditions: for EC50: Homo sapiens, MOLM-13, mean, 96 hours incubation, N=2; for EC50 (range in words) / reduction of viability (compared to vehicle controls): MOLM-13, 96 hours
Method: (§1) Mycoplasma-free AML cell lines were maintained in RPMI 10% FBS medium at 37° C. in a humidified incubator with controlled 5% CO2 atmosphere. Cell freezing and thawing was performed following recommendation from ATCC. Genetic profiling of the cell lines used is available in Table 1.
(§2) Cells were seeded in 96-well plates at the optimal density to guarantee linear growth throughout the assay (8000 cells/well for MV(4;11), 4000 cells/well for MOLM-13 and OCI-AML3) in 50 μL of medium. Each experimental condition was tested in technical triplicates, including medium-only and vehicle-treated controls for background correction and normalization, respectively. After seeding, 50 μL of medium containing 9 serial dilutions of 2×-concentrated compound were added to the cells to obtain 100 μL of cells with 1×-concentrated compound at each dilution (DMSO %<0.5%). Cells were then incubated for 96 hours at 37° C. in a controlled 5% CO2 atmosphere, prior to evaluation of cell viability using alamarBlue™ cell viability reagent (ThermoFisher Scientific, Waltham, MA/USA). AlamarBlue™ is a cell viability indicator that uses the natural reducing power of living cells to convert resazurin to the fluorescent molecule resorufin. Briefly, alamarBlue™ stock solution was diluted 1:20 in the culture medium and after 3 hours incubation fluorescence was measured using a TECAN Infinity 2000 plate reader (Tecan Group Ltd., Mannedorf, CH; 540-570 nm excitation wavelength, 580-610 nm emission wavelength). For each condition, the average fluorescence was calculated from the 3 technical replicates; background correction was calculated from the fluorescence of medium-only controls. Data were analyzed using the GraphPad PRISM® version 9.0.1 (GraphPad Software, Inc., La Jolla, CA/USA) to calculate the best-fitting curves and the EC50 values.

MV(4;11) = conditions: for EC50: Homo sapiens, MV4-11, mean, 96 hours incubation, N=2; for EC50 (range in words) / reduction of viability (compared to vehicle controls): MV(4;11), 96 hours
Method: as §1, §2

OCI-AML3 = conditions: for EC50: Homo sapiens, OCI-AML-3, mean, 96 hours incubation, N=2
Method: as §1, §2

| SMILES | EC50 (MOLM-13) | EC50 (range in words) (MOLM-13) | EC50 (OCI-AML3) | EC50 (range in words) (OCI-AML3; OCI-AML3, 96 hours) | reduction of viability (compared to vehicle controls) (MOLM-13) | EC50 (MV(4;11)) | EC50 (range in words) (MV(4;11)) | reduction of viability (compared to vehicle controls) (MV(4;11)) | reduction of viability (compared to vehicle controls) (OCI-AML3; OCI-AML3, 96 hours) |
| --- | --- | --- | --- | --- | --- | --- | --- | --- | --- |
| N#Cc1cc2cc(CN3CCC(Nc4ncnc5sc(CC(F)(F)F)cc45)CC3)ccc2[nH]1 [MI-136, 5-[[4-[[6-(2,2,2-trifluoroethyl)thieno[2,3-d]pyrimidin-4-yl]amino]piperidin-1-yl]methyl]-1H-indole-2-carbonitrile] | 1840 nM | less potent than SNDX-5613 |  |  | 100% | 593 nM | less potent than SNDX-5613 | 100% |  |
| CC(C)(C)OC(=O)N[C@@H]1CCCN(Cc2ccnc(C(=O)Nc3ccc(-c4cc5c(N6CCOCC6)ncnc5[nH]4)cc3)c2)C1 [Menin-MLL inhibitor 20, tert-butyl N-[(3R)-1-[[2-[[4-(4-morpholin-4-yl-7H-pyrrolo[2,3-d]pyrimidin-6-yl)phenyl]carbamoyl]pyridin-4-yl]methyl]piperidin-3-yl]carbamate] | 714 nM | less potent than SNDX-5613 |  |  | 100% | 750 nM | less potent than SNDX-5613 | 100% |  |
| CN1CCN(C(=O)[C@H](CCCN[C@@H]2C[C@H]2c2ccc(F)cc2)NC(=O)c2ccc(-n3ccnn3)cc2)CC1 [bomedemstat, N-[(2S)-5-{[(1R,2S)-2-(4-fluorophenyl)cyclopropyl]amino}-1-(4-methylpiperazin-1-yl)-1-oxopentan-2-yl]-4-(1H-1,2,3-triazol-1-yl)benzamide] | 3.55 nM |  | 1.4 nM |  |  | 2.9 nM |  |  |  |

Second part, led by results:

| EC50 (MOLM-13) | EC50 (range in words) (MOLM-13) | EC50 (OCI-AML3) | EC50 (range in words) (OCI-AML3; OCI-AML3, 96 hours) | SMILES | reduction of viability (compared to vehicle controls) (MOLM-13) | EC50 (MV(4;11)) | EC50 (range in words) (MV(4;11)) | reduction of viability (compared to vehicle controls) (MV(4;11)) | reduction of viability (compared to vehicle controls) (OCI-AML3; OCI-AML3, 96 hours) |
| --- | --- | --- | --- | --- | --- | --- | --- | --- | --- |
| 0.2 nM |  | 0.13 nM |  | N[C@H]1CC[C@H](N[C@@H]2C[C@H]2c2ccccc2)CC1 [iadademstat, (trans)-N1-((1R,2S)-2-phenylcyclopropyl)cyclohexane-1,4-diamine] |  | 0.16 nM |  |  |  |
| 1.15 nM |  | 0.99 nM |  | COc1ccc(-c2c(-c3ccc(C#N)c(F)c3)nc(N3CCC(N)CC3)n(C)c2=O)cc1F [pulrodemstat, 4-[2-(4-aminopiperidin-1-yl)-5-(3-fluoro-4-methoxyphenyl)-1-methyl-6-oxo-1,6-dihydropyrimidin-4-yl]-2-fluorobenzonitrile] |  | 1.1 nM |  |  |  |
| 32 nM | nanomolar range | 53.2 nM | nanomolar range | CCN(C(=O)c1cc(F)ccc1Oc1cncnc1N1CC2(CCN(C[C@H]3CC[C@H](NS(=O)(=O)CC)CC3)CC2)C1)C(C)C [revumenib, 2-{[4-(7-{[trans-4-(ethanesulfonamido)cyclohexyl]methyl}-2,7-diazaspiro[3.5]nonan-2-yl)pyrimidin-5-yl]oxy}-N-ethyl-5-fluoro-N-(propan-2-yl)benzamide] | around 70% | 9.58 nM | nanomolar range | ~100% | around 50% |
